Values joined by “and” are separate entries in the source; they are usually repeats but may differ in a detail not shown here. Equal values may be shown once.
Assays:
[1] = Stability analysis (HPLC purity on storage) without BHT at various temperatures; assay type: physicochemical; settings: for Purity (%): without BHT
Experimental: (§1) To check the purity of the 42-O-(heteroalkoxyalkyl) rapamycin compounds the following condition was followed by using High Performance Liquid Chromatography, Phenomenex Synergi Hydro-RP 80a (250×4.6 ) mm, 4 micron column. The mobile phase was 65:15:20 methanol:acetonitile:water mixture. The detector was set at 276 nm and the flow rate was adjusted to 1.5 mL/min. Column temperature was 40° C. 2.0 μg of 42-O-(heteroalkoxyalkyl) rapamycin compounds was injected onto the column in a volume of 5.0 μL methanol with run time of 50 min.
The purity loss was higher at increased temperature, but there was no apparent change in the impurity profile. Table 2A presents the purity of various 42-O-(heteroalkoxyalkyl) rapamycin compounds at different time intervals and temperature conditions.

rabbit blood [2] = experiment: Haemocompatibility test (thrombosis, coagulation, platelet count, leucocyte count); assay type: cell-based
Experimental: Haemocompatibility test is conducted to evaluate biological safety of the blood contacting 42-O-([…]) rapamycin and 42-O-(oxetan-3-yl) rapamycin compounds for the medical device. The interaction of test substance with rabbit blood was checked for thrombosis, coagulation, platelet count and leucocyte count.

[3] = tested on: L-929 (ATCC cell lines CCL-1, NCTC clone 929) Mus musculus mouse fibroblast cells; experiment: In-vitro cytotoxicity test by extraction method; assay type: cell-based; settings: extract in contact with L-929 cells for 48 hours
Experimental: In-vitro assessment was done to check the cytotoxic or necrotic potential of the 42-O-(tetrahydrofuran-3-yl) rapamycin and 42-O-(oxetan-3-yl) rapamycin compounds by extraction method. In this study extracts of test substance were kept in contact with a multiple culture of L-929 (ATCC cell lines CCL-1, NCTC clone 929) Mus musculus mouse fibroblast cells for 48 hours. The cells were examined microscopically to assess the changes for its general morphology, vacuolization, detachment, cell lysis and membrane integrity.

[4] = tested on: human aorta smooth muscle cell cultures (hAoSMCs); experiment: In-vitro anti-proliferative potency, BrdU assay, human smooth muscle cells; assay type: cell-based; settings: BrdU incorporation, over 5 orders of magnitude concentration, compared with rapamycin
Description: (§2) In-vitro assessment of relative anti-proliferative effect of novel mTOR inhibitors 42-O-(oxetan-3-yl) rapamycin compound and 42-O-(tetrahydrofuran-3-yl) rapamycin compound with rapamycin was done on human and rabbit smooth muscle cell culture models. In which, human aorta and rabbit illiac artery smooth muscle cell cultures were subjected to increasing doses of 42-O-(oxetan-3-yl) rapamycin compound 42-O-(tetrahydrofuran-3-yl) rapamycin compound and rapamycin over 5 orders of magnitude concentration in the cell culture medium. The ability of the cell culture to reproduce was assessed after drug exposure by addition of a BromodeoxyUridine (BrdU) coloured reagent which causes a colour change in the surviving cells. The extent of colour development was quantified at 450 nm wavelength using a spectrophotometer microplate reader (BMG Labtech, FLUOstar OPTIMA). […] On the contrary, lower OD values reflect less incorporation on BrdU and a shift towards cell inhibition. Growth inhibition was calculated by subtracting positive control OD values, which represent 100% uninhibited growth.

rabbit blood [5] = experiment: In-vitro haemolysis test; assay type: cell-based; settings: for Haemolytic Index, Mean ± S. D.: mean of three test extracts, rabbit blood, 4 hrs
Experimental: Haemolysis test was conducted on rabbit blood by in-vitro method to check the haemolytic effect of 42-O-(tetrahydrofuran-3-yl) rapamycin (Merilimus-1) compound and 42-O-(oxetan-3-yl) rapamycin (Merilimus-2) compound. In this study the extracts of the test substances in triplicate were kept in contact with rabbit blood and incubated for 4 hrs. The concentration of plasma haemoglobin liberated in supernatant was calculated by comparing with absorbance of the standard solution in a spectrophotometer at 540 nm.

[6] = tested on: rabbit illiac artery smooth muscle cell cultures (RbIASMCs); experiment: In-vitro anti-proliferative potency, BrdU assay, rabbit smooth muscle cells; assay type: cell-based; settings: BrdU incorporation, over 5 orders of magnitude concentration, compared with rapamycin
Description: as §2

[7] = Stability analysis (HPLC purity on storage) with various concentrations of BHT at 40° C.; assay type: physicochemical; settings: sealed container
Experimental: as §1
The inventors have also conducted the stability study of various 42-O-(heteroalkoxyalkyl) rapamycin compounds as mentioned above using various BHT concentrations. The study was conducted at 40° C. temperature in sealed container for 8 weeks.
42-O-(heteroalkoxyalkyl) rapamycin compounds obtained as per procedure described in Example 1 are respectively added with anti-oxidant, namely Butylated Hydroxytoluene (or BHT), at a concentration of 0.1%, 0.2%, 0.5%, and 1.0% (w/w) based on 100% (w/w) of 42-O-(heteroalkoxyalkyl) rapamycin compounds in sealed container to study the stability at 40° C. temperature. […] The purity data with the addition of different amounts of anti-oxidant as added to 42-O-(tetrahydrofuran-3-yl) rapamycin compound, 42-O-(oxetan-3-yl) rapamycin compound and 42-O-(tetrahydropyran-3-yl) rapamycin compound checked at different time intervals are summarized in Table 2B as below mentioned.

[8] = test group, individual rabbits No. 1-3

Q: With COC1CC(C[C@H](C)[C@@H]2CC(=O)[C@H](C)/C=C(\C)C(O)[C@@H](OC)C(=O)[C@H](C)C[C@H](C)/C=C/C=C/C=C(\C)[C@@H](OC)C[C@@H]3CC[C@@H](C)[C@@](O)(O3)C(=O)C(=O)N3CCCC[C@H]3C(=O)O2)CCC1OC1COC1 (some centres unmarked) [Merilimus-2, 42-O-(oxetan-3-yl) rapamycin] as the molecule, how does the “Stability (in words)” value ([1]; purified compounds without anti-oxidant) read?
A: more thermally stable

Q: And the “Purity (%)” value ([1]; 5° C. (sealed), 00 weeks after synthesis)?
A: 97.7%

Q: What about the “Purity (%)” value ([1]; 5° C. (sealed), 02 weeks after synthesis) of the same molecule?
A: 96.5%

Q: And the “Purity (%)” value ([1]; 5° C. (sealed), 04 weeks after synthesis)?
A: 95.6%

Q: And the “Purity (%)” value ([1]; 5° C. (sealed), 08 weeks after synthesis)?
A: 94.8%

Q: What about the “Purity (%)” value ([1]; 5° C. (sealed), 12 weeks after synthesis) of the same molecule?
A: 94.2%

Q: And the “Purity (%)” value ([1]; 25° C. (sealed), 00 weeks after synthesis)?
A: 97.6%

Q: And the “Purity (%)” value ([1]; 25° C. (sealed), 02 weeks after synthesis)?
A: 96.2%

Q: What about the “Purity (%)” value ([1]; 25° C. (sealed), 04 weeks after synthesis) of the same molecule?
A: 95.1%

Q: And the “Purity (%)” value ([1]; 25° C. (sealed), 08 weeks after synthesis)?
A: 94.5%

Q: And the “Purity (%)” value ([1]; 25° C. (sealed), 12 weeks after synthesis)?
A: 93.9%

Q: And the “Purity (%)” value ([1]; 25° C. (unsealed), 00 weeks after synthesis)?
A: 97.3%

Q: And the “Purity (%)” value ([1]; 25° C. (unsealed), 02 weeks after synthesis)?
A: 95.9%

Q: What about the “Purity (%)” value ([1]; 25° C. (unsealed), 04 weeks after synthesis) of the same molecule?
A: 94.8%

Q: What about the “Purity (%)” value ([1]; 25° C. (unsealed), 08 weeks after synthesis) of the same molecule?
A: 94.0%

Q: And the “Purity (%)” value ([1]; 25° C. (unsealed), 12 weeks after synthesis)?
A: 93.6%

Q: What about the “Purity (%)” value ([1]; 40° C. (sealed), 00 weeks after synthesis) of the same molecule?
A: 97.3%

Q: And the “Purity (%)” value ([1]; 40° C. (sealed), 02 weeks after synthesis)?
A: 95.5%

Q: And the “Purity (%)” value ([1]; 40° C. (sealed), 04 weeks after synthesis)?
A: 94.6%

Q: And the “Purity (%)” value ([1]; 40° C. (sealed), 08 weeks after synthesis)?
A: 93.6%

Q: What about the “Purity (%)” value ([1]; 40° C. (sealed), 12 weeks after synthesis) of the same molecule?
A: 92.7%

Q: And the “Haemocompatibility (in words)” value (rabbit blood [2]; all haematological findings compared to control)?
A: haemocompatible

Q: And the “Coagulation (PTT in sec.)” value (rabbit blood [2]; [8])?
A: 36 sec. (2×) and 38 sec.

Q: And the “Differential leucocyte count: Basophile %” value (rabbit blood [2]; [8])?
A: 00%

Q: What about the “Differential leucocyte count: Eosinophil %” value (rabbit blood [2]; [8]) of the same molecule?
A: 02% (2×) and 01%

Q: What about the “Differential leucocyte count: Lymphocyte %” value (rabbit blood [2]; [8]) of the same molecule?
A: 44% and 50% and 49%

Q: And the “Differential leucocyte count: Monocyte %” value (rabbit blood [2]; [8])?
A: 01%

Q: And the “Differential leucocyte count: Neutrophil %” value (rabbit blood [2]; [8])?
A: 55% and 48% (2×)

Q: What about the “Distribution of cells: Platelets” value (rabbit blood [2]; [8]) of the same molecule?
A: Normal

Q: And the “Distribution of cells: RBC” value (rabbit blood [2]; [8])?
A: Normal

Q: And the “Distribution of cells: WBC” value (rabbit blood [2]; [8])?
A: Normal

Q: And the Leucocyte count (rabbit blood [2]; [8])?
A: 7.5 Thousand/cmm (2×) and 6.5 Thousand/cmm

Q: What about the Platelet count (rabbit blood [2]; [8]) of the same molecule?
A: 4.9 lakhs/cmm and 4.5 lakhs/cmm (2×)

Q: And the Thrombosis (rabbit blood [2]; [8])?
A: Nil

Q: And the “Toxic effect on cells (in words)” value [3]?
A: did not reveal any toxic effect on cells

Q: What about the “Growth suppression of smooth muscle cells (in words)” value [4] of the same molecule?
A: more effectively inhibited growth of smooth muscle cells than rapamycin

Q: And the “Haemolytic Index” value (rabbit blood [5]; individual test extracts 1-3, rabbit blood, incubated 4 hrs, = Haemoglobin released/Haemoglobin present × 100)?
A: 1.9 (2×) and 2.0

Q: And the “Haemolytic Index, Mean ± S. D.” value (rabbit blood [5])?
A: 1.9 ± 0.02

Q: What about the “Haemolytic Index, Mean ± S. D.” value (rabbit blood [5]; listed as 42-O-(oxetan-3-yl) rapamycin) of the same molecule?
A: 1.9

Q: What about the “Haemolytic nature (in words)” value (rabbit blood [5]; on the basis of haemolytic index) of the same molecule?
A: non-haemolytic

Q: And the “Growth suppression of smooth muscle cells (in words)” value [6]?
A: more effectively inhibited growth of smooth muscle cells than rapamycin

Q: What about the “Purity (%)” value ([7]; BHT 0.0% (w/w), 0 week) of the same molecule?
A: 97.3%

Q: What about the “Purity (%)” value ([7]; BHT 0.0% (w/w), 2 weeks) of the same molecule?
A: 95.5%

Q: What about the “Purity (%)” value ([7]; BHT 0.0% (w/w), 4 weeks) of the same molecule?
A: 94.6%

Q: What about the “Purity (%)” value ([7]; BHT 0.0% (w/w), 8 weeks) of the same molecule?
A: 93.6%

Q: And the “Purity (%)” value ([7]; BHT 0.1% (w/w), 0 week)?
A: 97.7%

Q: And the “Purity (%)” value ([7]; BHT 0.1% (w/w), 2 weeks)?
A: 97.5%

Q: And the “Purity (%)” value ([7]; BHT 0.1% (w/w), 4 weeks)?
A: 97.5%

Q: And the “Purity (%)” value ([7]; BHT 0.1% (w/w), 8 weeks)?
A: 97.5%

Q: And the “Purity (%)” value ([7]; BHT 0.2% (w/w), 0 week)?
A: 97.6%

Q: And the “Purity (%)” value ([7]; BHT 0.2% (w/w), 2 weeks)?
A: 97.6%

Q: And the “Purity (%)” value ([7]; BHT 0.2% (w/w), 4 weeks)?
A: 97.5%

Q: What about the “Purity (%)” value ([7]; BHT 0.2% (w/w), 8 weeks) of the same molecule?
A: 97.5%

Q: What about the “Purity (%)” value ([7]; BHT 0.5% (w/w), 0 week) of the same molecule?
A: 97.6%

Q: And the “Purity (%)” value ([7]; BHT 0.5% (w/w), 2 weeks)?
A: 97.5%

Q: What about the “Purity (%)” value ([7]; BHT 0.5% (w/w), 4 weeks) of the same molecule?
A: 97.4%

Q: And the “Purity (%)” value ([7]; BHT 0.5% (w/w), 8 weeks)?
A: 97.4%

Q: And the “Purity (%)” value ([7]; BHT 1.0% (w/w), 0 week)?
A: 97.6%

Q: What about the “Purity (%)” value ([7]; BHT 1.0% (w/w), 2 weeks) of the same molecule?
A: 97.5%

Q: What about the “Purity (%)” value ([7]; BHT 1.0% (w/w), 4 weeks) of the same molecule?
A: 97.4%

Q: And the “Purity (%)” value ([7]; BHT 1.0% (w/w), 8 weeks)?
A: 97.4%

Q: And the “Purity after eight-weeks of storage” value ([7]; with various concentrations of BHT (concentration not given))?
A: 97.4%
